# Results as given in patent US11590117B2, “Treatment of a hematologic malignancy with 2-(4-chlorophenyl)-n-((2-(2,6-dioxopiperidin-3-yl)-1-oxoisoindolin-5-yl)methyl)-2,2-difluoroacetamide” (priority 2016, dated 2023).
# Read-outs that look alike come from different tables or passages of the source.
# How the values were obtained:
# Experiment in all cases: IncuCyte live cell imaging of cell viability, Red-labeled cell line
# Assay type in all cases: cell-based
# [1] = system: HL-60; conditions: Homo sapiens, Red-labeled HL-60, read-out: Inhibition of Cell Viability EC50
# Method: (§1) Derivation of Red-labeled Acute Myeloid Leukemia Cell Lines: Twelve cell lines, including AML-193, HL-60, KG-1, ML-2, MOLM-13, MV-4-11, NOMO-1, OCI-AML2, OCI-AML3, SIG-M5, TF-1, and THP-1, were stably transduced with Red lentivirus. Cells were plated in 6-well plates in growth media, incubated with 8 µg/mL polybrene (EMD Millipore Cat no. TR-1003-G) followed by infection with CellPlayer™ NucLight™ Red-lentiviral particles (Essen Biosciences Cat no. 4478) at a multiplicity of infectivity (MOI) of 0.5 to 2.5 for 24 hours. MOI refers to the ratio of virus particles to cells. Virus-containing media was replaced with fresh growth media and incubated for an additional 24 to 48 hours, followed by selection with Zeocin (500 to 2000 μg/mL), a derivative of bleomycin (Life Technologies-Invitrogen Cat no. R250-01). Cells were selected with fresh Zeocin every 3 to 4 days for 3 to 8 weeks. Cells were periodically viewed using fluorescent microscopy for nuclear-restricted red fluorescence. Zeocin selection was terminated once the population was confirmed to stably fluoresce red. All Red-labeled cell lines were acclimated to EMEM containing 20% FBS, with or without GM-CSF supplementation, allowing for optimal live cell imaging.
# (§2) Incubation of Cell Cultures with Compound 1: Compound 1 was provided for studies by Celgene chemistry group at a stock concentration of 30 mM in 20 μL dimethyl sulfoxide (DMSO) frozen. Costar 96-well cell culture plates (Corning Cat no. 3595) were coated with 100 μL of 10 µg/mL fibronectin (Sigma-Aldrich Cat no. F1141) for 4 hours at 37° C. and immediately used or refrigerated overnight for later use. Cells (3000 to 6000 cells) were plated in growth medi in fibronectin-coated 96-well plates and incubated for a minimum of a few hours to overnight. Cells were incubated with a 12-point concentration response in triplicate with Compound 1 ([…]) including DMSO and Media controls. A 3-fold serial dilution of Compound 1 starting from a concentration of 200 μM in 0.6% DMSO (diluted in Media) was performed. For most sensitive cell lines, a 3-fold serial dilution of Compound 1 starting from a concentration of 20 μM in 0.6% DMSO (diluted in media) was performed. A volume of 5 μL or 10 μL for each dilution was added to 100 μL or 200 μL cells, respectively (0.3% DMSO final) and incubated for live cell imaging.
# (§3) Live Cell Imaging on IncuCyte Zoom: Following incubation of cells with Compound 1, diluted Caspase 3/7 reagent (Essen Biosciences Cat no. 4440) is added to each well. The Caspase-3/7 reagent couples the activated caspase-3/7 recognition motif (DEVD) to NucView™488, a DNA intercalating dye. The cleavage of substrate by activated caspase-3/7 results in the release of the DNA dye and green fluorescent staining of nuclear DNA. This allows imaging of cells undergoing caspase-3/7 mediated apoptosis over time. Caspase-3/7 activation was quantified using the IncuCyte™ ZOOM basic analyzer. Red-labeled cell lines were also imaged over time using the IncuCyte™ ZOOM basic analyzer, for determination of both cell doubling time and Compound 1 effect on cell viability. Experiments were performed at least two times in each cell line.
# (§4) Next, a 4 parameter log-logistic model was used to determine relative EC50 at each time point by the ‘drm’ function from the R ‘drc’ package (Ritz C, Streibig J C. Bioassay Analysis using R. J. Statist. Software 2005; 12(5):1-22). Goodness of fit was measured by R squared (coefficient of determination or the amount of variation explained by the model fit) of ≥80%, and EC50 parameter was assessed by having a ratio of standard error to the parameter of ≤40%, and the presence of at least one concentration point above and below the reported EC50.
# (§5) Twelve Red-labeled human AML cell lines, established as described above, were incubated with Compound 1 dose range (0 to 10 μM) and Red fluorescence or Object count was imaged over time, as described above. […]
# [2] = system: SIG-M5; conditions: Homo sapiens, read-out: Inhibition of Cell Viability EC50
# Method: as §1, §2, §3, §4, §5
# [3] = system: MOLM-13; conditions: Homo sapiens, Red-labeled MOLM-13, read-out: Inhibition of Cell Viability EC50
# Method: as §1, §2, §3, §4, §5
# [4] = system: AML-193; conditions: Homo sapiens, Red-labeled AML-193, read-out: Inhibition of Cell Viability EC50
# Method: as §1, §2, §3, §4, §5
# [5] = system: OCI-AML2; conditions: Homo sapiens, read-out: Inhibition of Cell Viability EC50
# Method: as §1, §2, §3, §4, §5
# [6] = system: TF-1; conditions: Homo sapiens, Red-labeled TF-1, read-out: Inhibition of Cell Viability EC50
# Method: as §1, §2, §3, §4, §5
# [7] = system: MV4-11; conditions: Homo sapiens, Red-labeled MV4-11, read-out: Inhibition of Cell Viability EC50
# Method: as §1, §2, §3, §4, §5
# [8] = system: Nomo-1; conditions: Homo sapiens, Red-labeled NOMO-1, read-out: Inhibition of Cell Viability EC50
# Method: as §1, §2, §3, §4, §5
# [9] = system: OCI-AML3; conditions: Homo sapiens, read-out: Inhibition of Cell Viability EC50
# Method: as §1, §2, §3, §4, §5
# [10] = system: ML-2; conditions: Homo sapiens, Red-labeled ML-2, read-out: Inhibition of Cell Viability EC50
# Method: as §1, §2, §3, §4, §5
# [11] = system: KG-1; conditions: Homo sapiens, Red-labeled KG-1, read-out: Inhibition of Cell Viability EC50
# Method: as §1, §2, §3, §4, §5
# [12] = system: THP-1; conditions: Homo sapiens; Red-labeled THP-1; 96 hr; read-out: Inhibition of Cell Viability EC50
# Method: as §1, §2, §3, §4, §5
smiles,measurement,setting,value
"O=C1CCC(N2Cc3cc(CNC(=O)C(F)(F)c4ccc(Cl)cc4)ccc3C2=O)C(=O)N1 (stereo not drawn) [Compound 1, 2-(4-chlorophenyl)-N-((2-(2,6-dioxopiperidin-3-yl)-1-oxoisoindolin-5-yl)methyl)-2,2-difluoroacetamide]",EC50,[1]; 48 hr,9 nM
same,EC50,[1]; 72 hr,7 nM
same,EC50,[1]; 96 hr,6 nM
same,EC50,[2]; 72 hr,156 nM
same,EC50,[2]; 96 hr,178 nM
same,EC50,[3]; 48 hr,143 nM
same,EC50,[3]; 72 hr,208 nM
same,EC50,[3]; 96 hr,248 nM
same,EC50,[4]; 24 hr,10 nM
same,EC50,[4]; 48 hr,4 nM
same,EC50,[4]; 72 hr,3 nM
same,EC50,[4]; 96 hr,2 nM
same,EC50,[5]; 24 hr,387 nM
same,EC50,[5]; 48 hr,83 nM
same,EC50,[5]; 72 hr,42 nM
same,EC50,[5]; 96 hr,40 nM
same,EC50,[6]; 48 hr,30 nM
same,EC50,[6]; 72 hr,36 nM
same,EC50,[6]; 96 hr,58 nM
same,EC50,[7]; 48 hr,40 nM
same,EC50,[7]; 72 hr,27 nM
same,EC50,[7]; 96 hr,26 nM
same,EC50,[8]; 48 hr,19 nM
same,EC50,[8]; 72 hr,17 nM
same,EC50,[8]; 96 hr,17 nM
same,EC50,"[9]; OCI-AML-3, 72 hr",180 nM
same,EC50,"[9]; OCI-AML-3, 96 hr",186 nM
same,EC50,[10]; 72 hr,4 nM
same,EC50,[10]; 96 hr,4 nM
same,EC50,[11]; 48 hr,7 nM
same,EC50,[11]; 72 hr,7 nM
same,EC50,[11]; 96 hr,7 nM
same,EC50,[12],61 nM
